Data taken from US20050169948A1, “Method and compositions for treatment of acne vulgaris and acne rosacea” (priority 2004, published 2005).

Tests used:
[1] = test system: acne vulgaris or acne rosacea; assay: Clinical studies of topical formulations in acne patients, compared to placebo or to nicotinamide alone; format: in vivo, human; details: over one thousand acne patients
[2] = test system: skin; details: concentrations 1.0% to 10%

NC(=O)c1cccnc1 [nicotinamide]
efficacy in treating acne vulgaris or acne rosacea compared to placebo [1]: modestly effective

O=C(O)c1cccnc1 [nicotinic acid]
irritation on continuous or regular topical application [2]: too irritating
